Data from US11286228B2, “Stilbene derivative and method for preparing same” (Ozchela Inc., priority 2016, dated 2022).
Like-named read-outs stand apart in the source and are kept apart here.

Tests used:
[1] = molecular target: cyclophilin; assay: Cis-trans isomerase inhibitory activity (chymotrypsin-coupled Suc-AAPF-pNA cleavage, absorbance 390 nm); format: biochemical
Source text: Chymotrypsin cleaves a trans-type alanine-proline peptide bond. When Suc-AAPF-pNA (a peptide substrate) and chymotrypsin are mixed, the trans-type peptide substrate is cleaved and the cis-type peptide substrate remains. The remaining cis-type peptide substrate is converted into a trans form by a cis-trans isomerase and is then cleaved again by chymotrypsin. When the cis-trans isomerase is present, chymotrypsin is able to cleave a larger amount of trans-type peptide substrate within a predetermined period of time, from which the activity of the cis-trans isomerase may be determined. The amount of the cleaved trans-type peptide substrate is measured using absorbance at 390 nm. Cyclophilin has cis-trans isomerase activity, and accelerates the cleavage of trans-type peptide substrate by chymotrypsin. When the stilbene derivatives of the present invention were treated together with cyclophilin, the cleavage of the peptide substrate by chymotrypsin was not observed to accelerate. Thereby, the stilbene derivatives of the invention can be concluded to inhibit the activity of cyclophilin.

[2] = test system: hepatitis C virus; assay: Antiviral activity in HCV replicon cells (Renilla luciferase); format: cell-based
Experimental: The antiviral activity of the stilbene derivatives on hepatitis C virus was measured. The replicon cells that stably replicate the hepatitis C virus genome were attached to a culture plate and cultured in a CO2 incubator at 37° C. for 24 hr. The replicon cells cultured for one day were washed with a PBS solution, treated with the compounds of the present invention, and then cultured for 72 hr. The stilbene derivative-treated replicon cells were washed with a cold PBS solution and added with 20 μL of a cell lysis solution so that the cells were lysed in ice for 20 min. 100 μL of a Renilla luciferase substrate was added thereto, after which the luminescence thereof was measured and thus the amount of the hepatitis C virus genome was estimated. The amount of the hepatitis C virus genome in the stilbene derivative-treated replicon cells according to the present invention relative to the amount of the hepatitis C virus genome in dimethylsulfoxide (DMSO)-treated replicon cells is shown.
Compounds 1 to 155 of Tables 1 to 10 may be grouped as follows based on the antiviral activity (EC50) values: […]

[3] = test system: mitochondria obtained from hepatocytes; assay: Inhibitory activity on calcium-induced mitochondrial swelling (absorbance 520 nm)
Source text: Cyclophilin is a key protein for forming permeability transition pores (PTP) in mitochondria. When permeability transition pores are formed, mitochondria swell, whereby the outer membrane thereof ruptures and thus cell death progresses. Such mitochondrial dysfunction causes many diseases including neurodegenerative diseases, cancer, and the like. Cyclosporine, a known cyclophilin inhibitor, is capable of preventing the formation of permeability transition pores to thus suppress mitochondrial swelling.
The mitochondrial swelling test was performed as follows. Specifically, the hepatocytes were disrupted using a Dounce tissue grinder. The disrupted cells were centrifuged at 700×g for 10 min and the supernatant was transferred into a new tube. The supernatant was centrifuged at 12,000×g for 15 min, thereby obtaining mitochondria.
When the extracted mitochondria were added with calcium, they swelled, which may be observed by measuring the absorbance at 520 nm. The stilbene derivatives are effective at inhibiting mitochondrial swelling due to calcium.
The activity of Compounds 1 to 155 of Tables 1 to 10 on inhibiting mitochondrial swelling may be determined based on IC50 values, and may be grouped as follows: […]

[4] = cyclophilin, chymotrypsin, Suc-AAPF-pNA, read-out: Test Example 1: cis-trans isomerase inhibitory activity (IC50)
[5] = HCV replicon cells, 72 hr, Renilla luciferase, relative to DMSO, read-out: Test Example 3: antiviral activity (EC50)
[6] = calcium-induced swelling of extracted mitochondria, read-out: Test Example 4: inhibiting mitochondrial swelling (IC50)
[7] = Hepatitis C virus, HCV replicon cells, 72 hr, Renilla luciferase, relative to DMSO, read-out: Test Example 3: antiviral activity (EC50)
[8] = Hepatocyte, calcium-induced swelling of extracted mitochondria, read-out: Test Example 4: inhibiting mitochondrial swelling (IC50)
[9] = read-out: Test Example 1: cis-trans isomerase inhibitory activity (IC50) group
[10] = Hepatitis C virus, HCV replicon cells, read-out: Test Example 3: antiviral activity (EC50) group
[11] = Hepatocyte, read-out: Test Example 4: activity on inhibiting mitochondrial swelling (IC50) group
[12] = Hepatitis C virus, 72 h, read-out: Test Example 3: antiviral activity (EC50)

| Compound | IC50 [1, 4] | EC50 [2, 7] | IC50 [3, 8] | other results |
| --- | --- | --- | --- | --- |
| CCCCc1ccc(C(C#N)=Cc2ccccc2C(=O)O)cc1 [Compound 8] | 0.02 to 0.2 µM |  |  | EC50 [2, 5]: 0.5 to 5 µM; IC50 [3, 6]: 5 to 50 µM |
| CC(C)(C)Cc1ccc(C=Cc2ccccc2C(=O)OC2CCCCC2)cc1 [Compound 77] | 0.02 to 0.2 µM | 0.5 to 5 µM | 5 to 50 µM |  |
| N#CC(=Cc1ccccc1C(=O)O)c1ccc(CCC2CC2)cc1 [Compound 62] | ≤ 0.02 µM | < 0.5 µM | < 5 µM |  |
| CC(c1ccc(C(C#N)=Cc2ccccc2C(=O)O)cc1)C(C)(C)C (stereo not drawn) [Compound 56] | 0.02 to 0.2 µM | 0.5 to 5 µM | 5 to 50 µM |  |
| CCOc1ccc(C(C#N)=Cc2ccccc2OC)cc1 [Compound 16] | 0.2 to 2 µM | 5 to 50 µM | 50 to 500 µM |  |
| CCCCOC(=O)c1cccc(C(=O)OCCCC)c1C=Cc1ccc(CC(C)(C)C)cc1 [Compound 149] |  |  |  | IC50 [1, 9]: 0.02 to 0.2 µM; EC50 [2, 10]: 0.5 to 5 µM; IC50 [3, 11]: 5 to 50 µM |
| CCCCOC(=O)c1c(C)cccc1C=C(Cl)c1ccc(CC(C)(C)C)cc1 [Compound 113] | ≤ 0.02 µM | < 0.5 µM | < 5 µM |  |
| N#CC(=Cc1ccccc1OCC1CC1)c1ccc([N+](=O)[O-])cc1 [Compound 27] | 0.02 to 0.2 µM |  |  | EC50 [2, 5]: 0.5 to 5 µM; IC50 [3, 6]: 5 to 50 µM |
| CC(=Cc1ccccc1C(=O)OCc1ccccc1)c1ccc(CC(C)(C)C)cc1 [Compound 92] | 0.02 to 0.2 µM | 0.5 to 5 µM | 5 to 50 µM |  |
| N#CC(=Cc1ccccc1CCc1ccccc1)c1ccc([N+](=O)[O-])cc1 [Compound 38] | 0.02 to 0.2 µM | 0.5 to 5 µM | 5 to 50 µM |  |
| CC(=Cc1ccccc1C(=O)OC(C)C)c1ccc(CC(C)(C)C)cc1 [Compound 89] | 0.02 to 0.2 µM | 0.5 to 5 µM | 5 to 50 µM |  |
| CCCCOC(=O)c1ccccc1C=C(N)c1ccc(CC2CCCC2)cc1 [Compound 109] | 0.02 to 0.2 µM | 0.5 to 5 µM | 5 to 50 µM |  |
| CC(C)(C)Cc1ccc(C=Cc2c(O)cccc2C(=O)O)cc1 [Compound 150] |  |  |  | IC50 [1, 9]: ≤ 0.02 µM; EC50 [2, 10]: < 0.5 µM; IC50 [3, 11]: < 5 µM |
| CCCCOC(=O)c1ccccc1C=Cc1ccc(Cc2ccccc2)cc1 [Compound 81] | 0.02 to 0.2 µM |  | 5 to 50 µM | EC50 [2, 12]: 0.5 to 5 µM |
| CC(C)(C)Cc1ccc(C(N)=Cc2ccccc2C(=O)OC2CCCCC2)cc1 [Compound 107] | 0.02 to 0.2 µM | 0.5 to 5 µM | 5 to 50 µM |  |
| CC(C)(C)Cc1ccc(C(Cl)=Cc2ccccc2C(=O)OC2CCCCC2)cc1 [Compound 121] | ≤ 0.02 µM | < 0.5 µM | < 5 µM |  |
| CC(C)CCc1ccccc1C=C(C#N)c1ccc([N+](=O)[O-])cc1 [Compound 36] | 0.02 to 0.2 µM | 0.5 to 5 µM | 5 to 50 µM |  |
| CC(C)CCOc1cccc(C=C(C#N)c2ccc([N+](=O)[O-])cc2)c1 [Compound 32] | 0.2 to 2 µM | 5 to 50 µM | 50 to 500 µM |  |
| CC(C)(C)Cc1ccc(C=Cc2ccccc2C(=O)OCC2CCCCN2)cc1 (stereo not drawn) [Compound 75] | 0.02 to 0.2 µM | 0.5 to 5 µM | 5 to 50 µM |  |
| N#CC(=Cc1ccccc1C(=O)O)c1ccc(Cc2ccccc2)cc1 [Compound 21] | ≤ 0.02 µM |  |  | EC50 [2, 5]: < 0.5 µM; IC50 [3, 6]: < 5 µM |
| CC(C)(C)Cc1ccc(C=Cc2ccccc2C(N)=O)cc1 [Compound 141] | ≤ 0.02 µM | < 0.5 µM | < 5 µM |  |
| Cc1ccc(C(C#N)=Cc2ccccc2C(=O)O)cc1C [Compound 13] | 0.2 to 2 µM |  |  | EC50 [2, 5]: 5 to 50 µM; IC50 [3, 6]: 50 to 500 µM |
| COC(=O)c1ccccc1C=Cc1ccc(CC(C)C)cc1 [Compound 129] | 0.02 to 0.2 µM | 0.5 to 5 µM | 5 to 50 µM |  |
| CCC(C)Cc1ccc(C=Cc2ccccc2C(=O)OC)cc1 (stereo not drawn) [Compound 125] | 0.02 to 0.2 µM | 0.5 to 5 µM | 5 to 50 µM |  |

| Compound | IC50 [1, 4] | EC50 [2, 7] | IC50 [3, 8] | other results |
| --- | --- | --- | --- | --- |
| CCCCOC(=O)c1cc(C)ccc1C=C(I)c1ccc(CC(C)(C)C)cc1 [Compound 115] | ≤ 0.02 µM | < 0.5 µM | < 5 µM |  |
| CCCCOC(=O)c1ccccc1C=Cc1ccc(CC(C)C)cc1 [Compound 131] | ≤ 0.02 µM | < 0.5 µM | < 5 µM |  |
| CN(C)c1ccccc1C=C(C#N)c1ccc([N+](=O)[O-])cc1 [Compound 7] | 0.2 to 2 µM | 5 to 50 µM | 50 to 500 µM |  |
| COC(=O)c1ccccc1C=Cc1ccc(Cc2ccccc2)cc1 [Compound 128] | 0.02 to 0.2 µM |  | 5 to 50 µM | EC50 [2, 12]: 0.5 to 5 µM |
| CC(C)(Cc1ccc(C(C#N)=Cc2ccccc2C(=O)O)cc1)CC1CC1 [Compound 63] | 0.02 to 0.2 µM | 0.5 to 5 µM | 5 to 50 µM |  |
| CC(C)Cc1ccccc1C=C(C#N)c1ccc([N+](=O)[O-])cc1 [Compound 34] | 0.2 to 2 µM | 5 to 50 µM | 50 to 500 µM |  |
| CCCCOC(=O)c1ccccc1C=Cc1ccc(CC(C)(C)C)cc1C [Compound 67] | 0.02 to 0.2 µM | 0.5 to 5 µM | 5 to 50 µM |  |
| CC(C)(C)Cc1ccccc1C=C(C#N)c1ccc([N+](=O)[O-])cc1 [Compound 35] | 0.02 to 0.2 µM | 0.5 to 5 µM | 5 to 50 µM |  |
| CCOc1ccc(C(C#N)=Cc2ccccc2C(=O)O)cc1 [Compound 17] | 0.2 to 2 µM |  |  | EC50 [2, 5]: 5 to 50 µM; IC50 [3, 6]: 50 to 500 µM |
| CN1CCN(c2ccccc2C=C(C#N)c2ccc([N+](=O)[O-])cc2)CC1 [Compound 25] | 0.2 to 2 µM | 5 to 50 µM | 50 to 500 µM |  |
| N#CC(=Cc1ccccc1CCCC1CCCCC1)c1ccc([N+](=O)[O-])cc1 [Compound 40] | ≤ 0.02 µM | < 0.5 µM | < 5 µM |  |
| CC(C)OC(=O)c1ccccc1C=C(Br)c1ccc(CC(C)(C)C)cc1 [Compound 118] | ≤ 0.02 µM | < 0.5 µM | < 5 µM |  |
| Cc1ccc(C(=O)O)c(C=Cc2ccc(CC(C)(C)C)cc2)c1 [Compound 155] |  |  |  | IC50 [1, 9]: 0.02 to 0.2 µM; EC50 [2, 10]: 0.5 to 5 µM; IC50 [3, 11]: 5 to 50 µM |
| COc1ccccc1C=C(C#N)c1ccc(Cc2ccccc2)cc1 [Compound 20] | ≤ 0.02 µM | < 0.5 µM | < 5 µM |  |
| CCCCOC(=O)c1ccncc1C=Cc1ccc(CC(C)(C)C)cc1 [Compound 147] |  |  |  | IC50 [1, 9]: 0.02 to 0.2 µM; EC50 [2, 10]: 0.5 to 5 µM; IC50 [3, 11]: 5 to 50 µM |
| CC(=Cc1ccccc1C(=O)OC1CCCCC1)c1ccc(CC(C)(C)C)cc1 [Compound 93] | 0.02 to 0.2 µM | 0.5 to 5 µM | 5 to 50 µM |  |
| CCCCOC(=O)c1ccccc1C=Cc1ccc(CC2CCCC2)cc1 [Compound 79] | 0.02 to 0.2 µM | 0.5 to 5 µM | 5 to 50 µM |  |
| CC(C)(C)Cc1ccc(C=Cc2ccc(O)cc2C(=O)O)cc1 [Compound 136] | ≤ 0.02 µM | < 0.5 µM | < 5 µM |  |
| CC(=Cc1ccccc1C(=O)OCC1CCCCN1)c1ccc(CC(C)(C)C)cc1 (stereo not drawn) [Compound 91] | 0.02 to 0.2 µM | 0.5 to 5 µM | 5 to 50 µM |  |
| CCCCCOC(=O)c1ccccc1C=C(C)c1ccc(CC(C)(C)C)cc1 [Compound 88] | 0.02 to 0.2 µM | 0.5 to 5 µM | 5 to 50 µM |  |
| CCCCOC(=O)c1cc2ccccc2cc1C=Cc1ccc(CC(C)(C)C)cc1 [Compound 142] | 0.02 to 0.2 µM | 0.5 to 5 µM | 5 to 50 µM |  |
| CCCCOC(=O)c1cnccc1C=Cc1ccc(CC(C)(C)C)cc1 [Compound 146] |  |  |  | IC50 [1, 9]: 0.02 to 0.2 µM; EC50 [2, 10]: 0.5 to 5 µM; IC50 [3, 11]: 5 to 50 µM |
| CC(C)(C)CCc1ccccc1C=C(C#N)c1ccc([N+](=O)[O-])cc1 [Compound 43] | 0.02 to 0.2 µM | 0.5 to 5 µM | 5 to 50 µM |  |
| CCCCOc1ccc(C(C#N)=Cc2ccccc2OC)cc1 [Compound 18] | 0.02 to 0.2 µM | 0.5 to 5 µM | 5 to 50 µM |  |
